# Assay results from patent publication US9943501B2 (KOJUN JAPAN CO., LTD., priority 2014, dated 2018).
# Columns and labels:
# [1] = tested on: C57BL/6J mice fed with a high-fat diet; experiment: Adiponectin in blood of dietary-induced obesity mouse model; assay type: in vivo; conditions: 85 days, FIG. 15
# Excerpt: Adiponectin is a secretory protein related to dysmetabolic syndrome such as insulin resistance, diabetes mellitus or arteriosclerosis. Adiponectin-deficient mice have the properties of being more likely to develop insulin resistance and being more likely to be affected by arteriosclerosis than wild-type mice. In humans as well, it is known that lowered adiponectin concentrations are related to dysmetabolic syndrome such as diabetes mellitus and arteriosclerosis. Thus, the dietary-induced obesity mouse models of Example 9 were subjected to the test of measuring the amount of adiponectin in blood.
# For each individual of the male C57BL/6J mice after a lapse of 85 days into the test of Example 9, blood was collected from the abdominal vena cava using a syringe supplemented with heparin under anesthesia with 2% isoflurane. The amount of blood collected was set to approximately 0.8 mL. The collected blood was stored under ice cooling until centrifugation. After centrifugation (conditions: 4° C., approximately 1800×g, 10 min), the upper layer was recovered to obtain plasma. The plasma was dispensed to sampling tubes and cryopreserved until measurement. The mouse adiponectin concentration contained in the mouse plasma obtained from each individual was measured using a commercially available ELISA kit, and the average adiponectin concentration of each test group was determined. […]
# [2] = tested on: liver (hepatocytes) of C57BL/6J mice fed with a high-fat diet; experiment: Influence of administration on liver tissue (histopathological examination); assay type: in vivo, mouse; conditions: for deposition of fat droplets in the hepatocytes: 12 weeks, high-fat diet
# Excerpt: In Example 13, the liver was collected during the collection of fat tissues from each individual and histopathologically examined. The findings from the histopathological examination were as described below.
# For the individuals of the normal group, the deposition of fat droplets was not observed in the hepatocytes, whereas only the very mild infiltration of inflammatory cells was observed.
# [3] = molecular target: T1, human-derived PPARγ ligand-binding domain (Homo sapiens, UniProt P37231); experiment: PPARγ activation test (GAL4 chimera / luciferase reporter in CV-1 cells); assay type: cell-based; conditions: for PPARγ ligand activity, ratio (%) of the activity of each synthesized product to the activity of the control substance (DMSO): control = 100
# T1 construct: expressed in transfected cells; host or cells: CV-1 cells (African green monkey kidney-derived)
# T1 sequence (P37231 238-503 limits assumed): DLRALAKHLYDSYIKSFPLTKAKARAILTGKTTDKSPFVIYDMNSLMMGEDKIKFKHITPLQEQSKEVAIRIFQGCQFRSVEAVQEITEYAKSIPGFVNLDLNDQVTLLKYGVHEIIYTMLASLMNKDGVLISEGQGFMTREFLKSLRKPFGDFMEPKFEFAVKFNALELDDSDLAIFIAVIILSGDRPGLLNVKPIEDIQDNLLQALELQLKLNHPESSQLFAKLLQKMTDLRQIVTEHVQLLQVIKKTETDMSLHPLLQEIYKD
# Protocol: A measurement method for the PPAR activation test in Examples below were conducted as described below.
# (1) PPARγ Activation Test
# A plasmid pM-PPARγ for the expression of a chimeric protein composed of a human-derived PPARγ ligand-binding domain and a DNA-binding domain of a yeast-derived GAL4 transcription factor, and a plasmid p4×UASg-tk-luc containing a Cypridina-derived luciferase structural gene linked downstream of a GAL4 responsive sequence designed such that its expression was controlled by this chimeric protein, were prepared. Also, a Renilla-derived luciferase expression plasmid pRL-CMV having a viral expression promoter for constitutive intracellular expression was prepared as a plasmid for the correction of transfection efficiency. On the other hand, DMEM containing 10% FBS was used as a medium for CV-1 cells (African green monkey kidney-derived). The CV-1 cells were seeded at 4.5×10^5 cells over a 100-mm Petri dish and cultured in an incubator at 37° C. in a 5% CO2 environment.
# (1-2) Transformation of CV-1 Cell
# The CV-1 cells thus cultured for 24 hours were cotransfected with 2.0 μg of pM-PPARγ, 4.0 μg of p4×UASg-tk-luc, and 0.04 μg of pRL-CMV to transform the CV-1 cells. The transformation was carried out by the liposome method using LipofectAMINE(R) Reagent (a product of Invitrogen Corp.). After the transformation operation, the cells were cultured at 37° C. for 3.5 hours in a 5% CO2 environment.
# (1-3) Addition of Test Sample
# The CV-1 cells thus incubated were recovered by trypsin treatment, and […] thereof was inoculated at a concentration of 1×10^5 cells/mL to a 96-well plate. Each test sample was diluted with DMEM containing 4% FBS to adjust its concentration to twice the final concentration, and […] thereof was added to the 96-well plate mentioned above. DMSO was used as a control substance. After the addition of the test sample or the control substance (DMSO), the mixture was incubated at 37° C. for 24 hours in a 5% CO2 environment.
# (1-4) Measurement of Luciferase Activity
# The luciferase activity was measured using Dual-Luciferase(R) Reporter Assay System (a product of Promega K.K.). The culture solution was removed from the 96-well plate. The cells were washed with PBS(−), and moisture was removed therefrom using a paper towel. To the cells, […] of a cell lysis solution (Passive Lysis Buffer) was added, and the 96-well plate was shaken for 15 minutes. The cell extract was transferred at […] to a 96-well luminoplate. A luminescent substrate solution was added thereto at […]. The luminescence intensity based on the luciferase was measured for a measurement time set to 10 seconds using a luminometer (Micro Lumat Plus, a product of Berthold Japan Co., Ltd.).
# The PPARγ-activating effect of the test sample was evaluated on the basis of a ratio (%) relative to controls. In order to correct transfection efficiency, the measured Cypridina luciferase activity value (A) was divided by the measured Renilla luciferase activity value (B) to determine a value (A/B). The average A/B value of the control group was calculated and defined as 100. The A/B value of the test sample was calculated, and the ratio (%) of this value to the average value of the controls was used as the ability of the test sample to activate PPARγ.
# Their PPARγ ligand activity was measured in the same way as in Example 7 except that the incubation time after the test sample addition was set to 48 hours. The values shown in the table below and the ordinate of the drawing depict the ratio (%) of the activity of each synthesized product to the activity of the control substance (DMSO). In Table 1 and FIG. 13, these various butenolide compounds used as test samples were each indicated by the functional group of R^2 in the formula (1).
smiles,measurement,setting,value
"O=C1C=C(c2ccccc2)C(O)O1 (stereo not drawn) [5H4PB, 5-hydroxy-4-phenylbutenolide]",adiponectin concentration in mouse plasma compared with the control group (t test),[1]; 0.01 mg/kg/day,significant rise in adiponectin concentration
same,adiponectin concentration in mouse plasma compared with the control group,[1]; 5H4PB administration groups (0.037 μg/kg/day and 0.01 mg/kg/day),confirmed to elevate
same,deposition of fat droplets in the hepatocytes,[2]; 0.037 μg/kg/day,no or only weak depositions of fat droplets
same,deposition of fat droplets in the hepatocytes,[2]; 0.01 mg/kg/day,no or only weak depositions of fat droplets
same,hepatic damage (histopathological findings),[2]; compared with the rosiglitazone administration groups or the control group,free from hepatic damage
same,PPARγ ligand activity of butenolide compounds (in words),"[3]; Example 8, incubation 48 hours, Table 1 and FIG. 13",high activity in a low concentration range
same,PPARγ ligand activity of synthesized product,"[3]; final concentration 3.5 μM, incubation 24 hours, FIG. 12",high PPARγ ligand activity
same,"PPARγ ligand activity, ratio (%) of the activity of each synthesized product to the activity of the control substance (DMSO)","[3]; test sample concentration 0.032 μg/mL, incubation 48 hours",100%
same,"PPARγ ligand activity, ratio (%) of the activity of each synthesized product to the activity of the control substance (DMSO)","[3]; test sample concentration 0.08 μg/mL, incubation 48 hours",80%
same,"PPARγ ligand activity, ratio (%) of the activity of each synthesized product to the activity of the control substance (DMSO)","[3]; test sample concentration 0.16 μg/mL, incubation 48 hours",120%
same,"PPARγ ligand activity, ratio (%) of the activity of each synthesized product to the activity of the control substance (DMSO)","[3]; test sample concentration 0.4 μg/mL, incubation 48 hours",120%
same,"PPARγ ligand activity, ratio (%) of the activity of each synthesized product to the activity of the control substance (DMSO)","[3]; test sample concentration 0.8 μg/mL, incubation 48 hours, * = twice or more vs control, p<0.05",220* %
same,"PPARγ ligand activity, ratio (%) of the activity of each synthesized product to the activity of the control substance (DMSO)","[3]; test sample concentration 2 μg/mL, incubation 48 hours, * = twice or more vs control, p<0.05",370* %
same,"PPARγ ligand activity, ratio (%) of the activity of each synthesized product to the activity of the control substance (DMSO)","[3]; test sample concentration 4 μg/mL, incubation 48 hours, * = twice or more vs control, p<0.05",520* %
same,"PPARγ ligand activity, ratio (%) of the activity of each synthesized product to the activity of the control substance (DMSO)","[3]; test sample concentration 10 μg/mL, incubation 48 hours, * = twice or more vs control, p<0.05",710* %
